{"source": "patent US11155746B2", "about": "“Compositions and methods for reducing hydrogen sulfide and microbial influenced corrosion in crude oil, natural gas, and in associated equipment” (priority 2017, dated 2021)", "origin": "cited, not measured here", "settings": "atmospheric exposure"}
{"smiles": "S", "note": "[H2S, hydrogen sulfide]", "values": [{"measurement": "exposure concentration that can be rapidly fatal", "value": "above 600 ppm"}, {"measurement": "exposure concentration that can cause damage to internal organs", "value": "above 100 ppm"}]}
